According to patent US20240246940A1, “HETEROARYL DERIVATIVE COMPOUND AND USE THEREOF” (VORONOI INC., priority 2021, published 2024):

Assays:
[1] = system: SK-BR-3 cells (HER2 overexpressing cell line); assay: SK-BR-3 cell proliferation inhibitory activity (CellTiter-Glo, 120 hours); format: cell-based; details: Homo sapiens
How it was run: (§1)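 GI50 derived from % growth versus control from CellTiter-Glo luminescence, each test run three times. SK-BR-3 and BT-474 are seeded 48 h ahead at 5000/well and dosed at 0.2 nM–10 μM. N-87 (5000/well) gets […]–5 μM and HaCaT (3000/well) gets 0.8 nM–45 μM, both seeded 24 h ahead.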

[2] = system: HaCaT cells (EGFR expressing cell line); assay: HaCaT cell proliferation inhibitory activity (CellTiter-Glo, 72 hours); format: cell-based; details: Homo sapiens
How it was run: as §1

Structure (SMILES) | GI50 [1] | GI50 [2]
C=CC(=O)N1CCC(Oc2cc3c(Nc4cc(-c5ccc(C)cc5F)ccc4OC)ncnc3cc2OC)CC1 [Example 131, 1-(4-((4-((2′-fluoro-4-methoxy-4′-methyl-[1,1′-biphenyl]-3-yl)amino)-7-methoxy-quinazolin-6-yl)oxy)piperidin-1-yl)prop-2-en-1-one] | 0.15 to 1 µM | 0.15 to 1 µM
C=CC(=O)N1CC[C@H](Oc2cc3c(Nc4cc(-c5ccco5)ccc4OC)ncnc3cc2OC)C1 [Example 132, (S)-1-(3-((4-((5-(furan-2-yl)-2-methoxyphenyl)amino)-7-methoxy-quinazolin-6-yl)oxy)pyrrolidin-1-yl)prop-2-en-1-one] | > 1 µM | 0.15 to 1 µM
C=CC(=O)N1CCC(Oc2cc3c(Nc4cc(-c5ccc(F)nc5)ccc4OC)ncnc3cc2OC)CC1 [Example 133, 1-(4-((4-((5-(6-fluoropyridin-3-yl)-2-methoxyphenyl)amino)-7-methoxy-quinazolin-6-yl)oxy)piperidin-1-yl)prop-2-en-1-one] | 0.15 to 1 µM | 0.15 to 1 µM
C=CC(=O)N1CCC(Oc2cc3c(Nc4cc(-c5cccc(C#N)c5F)ccc4OC)ncnc3cc2OC)CC1 [Example 134, 3′-((6-((1-acryloyl-piperidin-4-yl)oxy)-7-methoxy-quinazolin-4-yl)amino)-2-fluoro-4′-methoxy-[1,1′-biphenyl]-3-carbonitrile] | 0.15 to 1 µM | 0.15 to 1 µM
C=CC(=O)N1CCC(Oc2cc3c(Nc4cc(-c5cccc(Cl)c5F)ccc4OC)ncnc3cc2OC)CC1 [Example 135, 1-(4-((4-((3′-chloro-2′-fluoro-4-methoxy-[1,1′-biphenyl]-3-yl)amino)-7-methoxy-quinazolin-6-yl)oxy)piperidin-1-yl)prop-2-en-1-one] | 0.15 to 1 µM | 0.15 to 1 µM
C=CC(=O)N1CCC(Oc2cc3c(Nc4cc(-c5ccccc5F)ccc4OC)ncnc3cc2OC)CC1 [Example 136, 1-(4-((4-((2′-fluoro-4-methoxy-[1,1′-biphenyl]-3-yl)amino)-7-methoxy-quinazolin-6-yl)oxy)piperidin-1-yl)prop-2-en-1-one] | ≤ 0.15 µM | ≤ 0.15 µM
C=CC(=O)N1CCC(Oc2cc3c(Nc4cc(-c5cccc(F)c5F)ccc4OC)ncnc3cc2OC)CC1 [Example 137, 1-(4-((4-((2′,3′-difluoro-4-methoxy-[1,1′-biphenyl]-3-yl)amino)-7-methoxy-quinazolin-6-yl)oxy)piperidin-1-yl)prop-2-en-1-one] | ≤ 0.15 µM | ≤ 0.15 µM
C=CC(=O)N1CCC(F)(F)C(Oc2cc3c(Nc4cc(-c5ccc(F)cc5F)ccc4OC)ncnc3cc2OC)C1 (stereo not shown) [Example 141, 1-(3-((4-((2′,4′-difluoro-4-methoxy-[1,1′-biphenyl]-3-yl)amino)-7-methoxy-quinazolin-6-yl)oxy)-4,4-difluoro-piperidin-1-yl)prop-2-en-1-one] | > 1 µM | 0.15 to 1 µM
C=CC(=O)N1CCC(Oc2cc3c(Nc4cc(-c5cccs5)ccc4OC)ncnc3cc2OC)C(F)C1 (stereo not shown) [Example 144, 1-(3-fluoro-4-((7-methoxy-4-((2-methoxy-5-(thiophen-2-yl)phenyl)amino)quinazolin-6-yl)oxy)piperidin-1-yl)prop-2-en-1-one] | ≤ 0.15 µM | ≤ 0.15 µM
C=CC(=O)N1CCC(Oc2cc3c(Nc4cc(-c5cc(F)cnc5F)ccc4OC)ncnc3cc2OC)CC1 [Example 145, 1-(4-((4-((5-(2,5-difluoropyridin-3-yl)-2-methoxyphenyl)amino)-7-methoxy-quinazolin-6-yl)oxy)piperidin-1-yl)prop-2-en-1-one] | ≤ 0.15 µM | ≤ 0.15 µM
C=CC(=O)N1CCC(Oc2cc3c(Nc4cc(-c5ccc(F)nc5F)ccc4OC)ncnc3cc2OC)CC1 [Example 147, 1-(4-((4-((5-(2,6-difluoropyridin-3-yl)-2-methoxyphenyl)amino)-7-methoxy-quinazolin-6-yl)oxy)piperidin-1-yl)prop-2-en-1-one] | 0.15 to 1 µM | 0.15 to 1 µM
C=CC(=O)N1CCC(Oc2cc3c(Nc4cc(-c5ccco5)ccc4OC)ncnc3cc2OC)C(C)C1 (stereo not shown) [Example 148, 1-(4-((4-((5-(furan-2-yl)-2-methoxyphenyl)amino)-7-methoxy-quinazolin-6-yl)oxy)-3-methylpiperidin-1-yl)prop-2-en-1-one] | ≤ 0.15 µM | ≤ 0.15 µM
C=CC(=O)N1CCC(Oc2cc3c(Nc4cc(-c5ccncc5)ccc4OC)ncnc3cc2OC)CC1 [Example 149, 1-(4-((7-methoxy-4-((2-methoxy-5-(pyridin-4-yl)phenyl)amino)quinazolin-6-yl)oxy)piperidin-1-yl)prop-2-en-1-one] | 0.15 to 1 µM | 0.15 to 1 µM
C=CC(=O)N1CCCC(Oc2cc3c(Nc4cc(-c5ccco5)ccc4OC)ncnc3cc2OC)C1 (stereo not shown) [Example 162, 1-(3-((4-((5-(furan-2-yl)-2-methoxyphenyl)amino)-7-methoxy-quinazolin-6-yl)oxy)piperidin-1-yl)prop-2-en-1-one] | > 1 µM | 0.15 to 1 µM
C=CC(=O)N1CCC(Oc2cc3c(Nc4cc(-c5ccco5)ccc4OC)ncnc3cc2OC)CC1C(F)(F)F (stereo not shown) [Example 164, 1-(4-((4-((5-(furan-2-yl)-2-methoxyphenyl)amino)-7-methoxy-quinazolin-6-yl)oxy)-2-(trifluoromethyl)piperidin-1-yl)prop-2-en-1-one] | 0.15 to 1 µM | ≤ 0.15 µM
C=CC(=O)N1CCC(Oc2cc3c(Nc4cc(-c5ccc(F)cc5F)ccc4OC)ncnc3cc2OC)CC1C(F)(F)F (stereo not shown) [Example 165, 1-(4-((4-((2′,4′-difluoro-4-methoxy-[1,1′-biphenyl]-3-yl)amino)-7-methoxy-quinazolin-6-yl)oxy)-2-(trifluoromethyl)piperidin-1-yl)prop-2-en-1-one] | > 1 µM | 0.15 to 1 µM
C=CC(=O)N1C2CCC1CC(Oc1cc3c(Nc4cc(-c5ccco5)ccc4OC)ncnc3cc1OC)C2 (stereo not shown) [Example 166, 1-(3-((4-((5-(furan-2-yl)-2-methoxyphenyl)amino)-7-methoxy-quinazolin-6-yl)oxy)-8-azabicyclo [3.2.1]octan-8-yl)prop-2-en-1-one] | ≤ 0.15 µM | ≤ 0.15 µM
C=CC(=O)N1CCC(Oc2cc3c(Nc4cc(-c5cccc(N)c5)ccc4OC)ncnc3cc2OC)CC1 [Example 180, 1-(4-((4-((3′-amino-4-methoxy-[1,1′-biphenyl]-3-yl)amino)-7-methoxy-quinazolin-6-yl)oxy)piperidin-1-yl)prop-2-en-1-one] | 0.15 to 1 µM | > 1 µM
C=CC(=O)N1CC(Oc2cc3c(Nc4cc(-c5cccc(NC(=O)C6CC6)c5)ccc4OC)ncnc3cc2OC)C1 [Example 227, N-(3′-((6-((1-acryloylazetidin-3-yl)oxy)-7-methoxy-quinazolin-4-yl)amino)-4′-methoxy-[1,1′-biphenyl]-3-yl)cyclopropan-carboxamide] | 0.15 to 1 µM | > 1 µM
C=CC(=O)N1CC(Oc2cc3c(Nc4cc(-c5ccnc6c(NC(=O)C7CC7)snc56)ccc4OC)ncnc3cc2OC)C1 [Example 234, N-(7-(3-((6-((1-acryloylazetidin-3-yl)oxy)-7-methoxyquinazolin-4-yl)amino)-4-methoxyphenyl)isothiazolo[4,3-b]pyridin-3-yl)cyclopropancarboxamide] | 0.15 to 1 µM | 0.15 to 1 µM
